Values after ≈ are worked out from the molar mass of the structure shown. Active and inactive are the calls of the source. The calls are words filed in the database; no cut-off is given here.
What was measured:
SH-SY5Y [1] = assay: Neuroprotective activity against glutamate induced human SH-SY5Y cells at 1 uM preincubated for 30 mins followed by glutamate addition and measured after 24 hrs by LDH based assay; assay type: functional; details: time 24.5 hrs
SH-SY5Y [2] = assay: Neuroprotective activity against glutamate induced human SH-SY5Y cells at 0.1 uM preincubated for 30 mins followed by glutamate addition and measured after 24 hrs by LDH based assay; assay type: functional; details: time 24.5 hrs
SH-SY5Y [3] = assay: Cytotoxicity against human SH-SY5Y cells at 25 uM incubated for 72 hrs by CCK8 assay; assay type: toxicity, cell-based
SH-SY5Y [4] = assay: Neuroprotective activity against glutamate induced human SH-SY5Y cells at 10 uM preincubated for 30 mins followed by glutamate addition and measured after 24 hrs by LDH based assay; assay type: functional; details: time 24.5 hrs
[5] = AUC(0 to infinity) in Sprague-Dawley rat at 10 mg/kg, po measured upto 24 hrs by LC-MS/MS analysis; assay type: ADME, organism-based; details: in vivo
[6] = AUC(0 to infinity) in Sprague-Dawley rat at 5 mg/kg, iv measured upto 24 hrs by LC-MS/MS analysis; assay type: ADME, organism-based; details: in vivo
[7] = Cmax in Sprague-Dawley rat at 5 mg/kg, iv measured upto 24 hrs by LC-MS/MS analysis; assay type: ADME, organism-based; details: in vivo
[8] = Mean residence time in Sprague-Dawley rat at 5 mg/kg, iv measured upto 24 hrs by LC-MS/MS analysis; assay type: ADME, organism-based; details: in vivo
Cortical neurone = assay: Neuroprotective activity against glutamate induced Sprague-Dawley rat primary cortical neuron at 0.1 to 10 uM preincubated for 30 mins followed by glutamate/glycine addition for 30 mins and measured after 24 hrs by LDH based assay; assay type: functional, cell-based; details: dose 0.1-10 µM, time 25.0 hrs
[9] = AUC(0 to t) in Sprague-Dawley rat at 10 mg/kg, po measured upto 24 hrs by LC-MS/MS analysis; assay type: ADME, organism-based; details: in vivo
[10] = Cmax in Sprague-Dawley rat at 10 mg/kg, po measured upto 24 hrs by LC-MS/MS analysis; assay type: ADME, organism-based; details: in vivo
[11] = Oral bioavailability in Sprague-Dawley rat at 10 mg/kg measured upto 24 hrs by LC-MS/MS analysis; assay type: ADME, organism-based; details: in vivo
[12] = Mean residence time in Sprague-Dawley rat at 10 mg/kg, po measured upto 24 hrs by LC-MS/MS analysis; assay type: ADME, organism-based; details: in vivo
[13] = Apparent volume of distribution in Sprague-Dawley rat at 5 mg/kg, iv measured upto 24 hrs by LC-MS/MS analysis; assay type: ADME, organism-based; details: in vivo, read-out: Vz
[14] = Half life in Sprague-Dawley rat at 10 mg/kg, po measured upto 24 hrs by LC-MS/MS analysis; assay type: ADME, organism-based; details: in vivo
[15] = AUC(0 to t) in Sprague-Dawley rat at 5 mg/kg, iv measured upto 24 hrs by LC-MS/MS analysis; assay type: ADME, organism-based; details: in vivo
[16] = Half life in Sprague-Dawley rat at 5 mg/kg, iv measured upto 24 hrs by LC-MS/MS analysis; assay type: ADME, organism-based; details: in vivo
[17] = Tmax in Sprague-Dawley rat at 10 mg/kg, po measured upto 24 hrs by LC-MS/MS analysis; assay type: ADME, organism-based; details: in vivo
Rattus norvegicus [18] = assay: Neuroprotective activity against MCAO-reperfusion induced Sprague-Dawley rat assessed as reduction in infarct volume at 6 mg/kg, ip by TTC staining based analysis (reference value: 40.02 +/- 2.61 %); assay type: functional; design: scale not given: the % may be the effect or the level left
[19] = Drug concentration in Sprague-Dawley rat plasma at 10 mg/kg, iv after 0.25 hrs by LC-MS/MS analysis; assay type: ADME, organism-based
[20] = Apparent clearance in Sprague-Dawley rat at 2 mg/kg, iv measured upto 24 hrs by LC-MS/MS analysis; assay type: ADME, organism-based; details: in vivo, read-out: CL(app)
[21] = AUC(0 to infinity) in Sprague-Dawley rat at 2 mg/kg, iv measured upto 24 hrs by LC-MS/MS analysis; assay type: ADME, organism-based; details: in vivo
[22] = AUC(0 to t) in Sprague-Dawley rat at 2 mg/kg, iv measured upto 24 hrs by LC-MS/MS analysis; assay type: ADME, organism-based; details: in vivo
[23] = Cmax in Sprague-Dawley rat at 2 mg/kg, iv measured upto 24 hrs by LC-MS/MS analysis; assay type: ADME, organism-based; details: in vivo
[24] = Drug concentration in Sprague-Dawley rat brain at 10 mg/kg, iv after 0.25 hrs by LC-MS/MS analysis; assay type: ADME, organism-based; details: read-out: Ct
[25] = Ratio of drug concentration in Sprague-Dawley rat brain to plasma at 10 mg/kg, iv measured after 1 hr by LC-MS/MS analysis; assay type: ADME, organism-based
[26] = Ratio of drug concentration in Sprague-Dawley rat brain to plasma at 10 mg/kg, iv measured after 0.25 hrs by LC-MS/MS analysis; assay type: ADME, organism-based
[27] = Drug concentration in Sprague-Dawley rat plasma at 10 mg/kg, iv after 1 hr by LC-MS/MS analysis; assay type: ADME, organism-based
Neuron [28] = assay: Inhibition of PSD95 to nNOS protein-protein interaction in glutamate induced rat neurons at 2 to 20 uM by co-immunoprecipitation method; assay type: cell-based; details: dose 2-20 µM
[29] = Drug concentration in Sprague-Dawley rat plasma at 10 mg/kg, iv after 0.5 hrs by LC-MS/MS analysis; assay type: ADME, organism-based
Rattus norvegicus [30] = assay: Neuroprotective activity against MCAO-reperfusion induced Sprague-Dawley rat assessed as reduction in infarct volume at 10 mg/kg, ip by TTC staining based analysis (reference value: 40.02 +/- 2.61 %); assay type: functional; design: scale not given: the % may be the effect or the level left
Neuron [31] = assay: Neuroprotective activity against glutamate-induced excitotoxicity in rat primary neurons at 0.1 uM; assay type: functional, cell-based
[32] = Ratio of drug concentration in Sprague-Dawley rat brain to plasma at 10 mg/kg, iv measured after 0.5 hrs by LC-MS/MS analysis; assay type: ADME, organism-based
[33] = Half life in Sprague-Dawley rat at 2 mg/kg, iv measured upto 24 hrs by LC-MS/MS analysis; assay type: ADME, organism-based; details: in vivo
[34] = Solubility of the compound at pH 7.4; assay type: physicochemical; details: buffer
Rattus norvegicus [35] = assay: Neuroprotective activity against MCAO-reperfusion induced Sprague-Dawley rat assessed as reduction in neurological deficit score at 10 mg/kg, ip by TTC staining based analysis (reference value: 2.93 +/- 0.12); assay type: functional
[36] = Drug concentration in Sprague-Dawley rat brain at 10 mg/kg, iv after 1 hr by LC-MS/MS analysis; assay type: ADME, organism-based; details: read-out: Ct
[37] = Mean residence time in Sprague-Dawley rat at 2 mg/kg, iv measured upto 24 hrs by LC-MS/MS analysis; assay type: ADME, organism-based; details: in vivo
[38] = Drug concentration in Sprague-Dawley rat brain at 10 mg/kg, iv after 0.5 hrs by LC-MS/MS analysis; assay type: ADME, organism-based; details: read-out: Ct
[39] = Apparent volume of distribution in Sprague-Dawley rat at 2 mg/kg, iv measured upto 24 hrs by LC-MS/MS analysis; assay type: ADME, organism-based; details: in vivo, read-out: Vz

Nc1cc(Cl)cc(Cl)c1OCc1ccc(NS(=O)(=O)C(F)(F)F)cc1
Activity (SH-SY5Y [1]): 36.13%
Activity (SH-SY5Y [2]): 10.69%
Activity (SH-SY5Y [3]): 2.21%
Activity (SH-SY5Y [4]): 60.31%

CN(C)CCNC(=O)c1ccc(COc2c(N)cc(Cl)cc2Cl)cc1
Activity (SH-SY5Y [1]): 15.63%
Activity (SH-SY5Y [2]): 2.56%
Activity (SH-SY5Y [3]): 1.52%
Activity (SH-SY5Y [4]): 32.3%

Nc1cc(Cl)cc(Cl)c1OCc1ccc(S(N)(=O)=O)cc1
Activity (SH-SY5Y [1]): 15.52%
Activity (SH-SY5Y [2]): <0%
Activity (SH-SY5Y [3]): 6.21%
Activity (SH-SY5Y [4]): 33.84%

NCCCNC(=O)c1ccc(COc2c(N)cc(Cl)cc2Cl)cc1
AUC ([5]; po, 10 mg/kg, 24 h): 365.22 ng·h/mL
AUC [6]: 317.96 ng·h/mL
Cmax [7]: 471 ng/mL
MRT [8]: 1.46 h
Activity (Cortical neurone): Active
AUC(0-t) at 24 h [9]: 309 ng·h/mL
Activity (SH-SY5Y [1]): 39.65%
Activity (SH-SY5Y [2]): 21.18%
Cmax [10]: 69.3 ng/mL
F ([11]; po, 10 mg/kg, 24 h): 21.79%
Activity (SH-SY5Y [3]): 1.77%
MRT [12]: 3.26 h
Vd [13]: 24.7 L/kg
half-life [14]: 1.96 h
AUC(0-t) at 24 h [15]: 296 ng·h/mL
half-life [16]: 2.67 h
Activity (SH-SY5Y [4]): 61.33%
Tmax [17]: 1.5 h

NNC(=O)c1ccc(COc2c(N)cc(Cl)cc2Cl)cc1
Activity (SH-SY5Y [1]): 6.15%
Activity (SH-SY5Y [2]): 5.89%
Activity (SH-SY5Y [3]): 0.59%
Activity (SH-SY5Y [4]): 22.56%

CN(CCN)C(=O)c1ccc(COc2c(N)cc(Cl)cc2Cl)cc1
Activity (SH-SY5Y [1]): 32.51%
Activity (SH-SY5Y [2]): 11.33%
Activity (SH-SY5Y [3]): 2.21%
Activity (SH-SY5Y [4]): 44.82%

CC1=NN(c2ccccc2)C(=O)C1 [EDARAVONE]
Activity (Rattus norvegicus [18]): 27.06%

NCC(=O)Nc1cc(Cl)cc(Cl)c1OCc1ccc(C(=O)Nc2ccccc2N)cc1
AUC(0-inf) ([5]; Sprague-Dawley): 1260 ng·h/mL
concentration at 0.25 h [19]: 1890 ng/mL
clearance [20]: 26.4 mL/min/kg
AUC(0-inf) [21]: 1280 ng·h/mL
AUC(0-t) at 24 h [22]: 1270 ng·h/mL
Cmax [23]: 2510 ng/mL
concentration at 0.25 h [24]: 10.6 ng/g
Kp at 1 h [25]: 0.0305
Kp at 0.25 h [26]: 0.0056
concentration at 1 h [27]: 329 ng/mL
inhibition (Neuron [28]): Active
AUC(0-t) at 24 h [9]: 1240 ng·h/mL
concentration at 0.5 h [29]: 935 ng/mL
Activity (Rattus norvegicus [30]): 28.31%
Activity (Neuron [31]): Active
Cmax [10]: 233 ng/mL
bioavailability ([11]; Sprague-Dawley): 19.6%
Kp at 0.5 h [32]: 0.0082
MRT [12]: 3.26 h
half-life [14]: 4.26 h
half-life [33]: 4.08 h
solubility [34]: 23 µg/mL (≈ 50.1 µM)
Activity (Rattus norvegicus [35]): 2.27
concentration at 1 h [36]: 10 ng/g
MRT [37]: 1.46 h
concentration at 0.5 h [38]: 7.64 ng/g
Tmax [17]: 0.83 h
Vd [39]: 8.81 L/kg

COCCNC(=O)c1ccc(COc2c(N)cc(Cl)cc2Cl)cc1
Activity (SH-SY5Y [1]): 40.46%
Activity (SH-SY5Y [2]): 11.71%
Activity (SH-SY5Y [3]): 1.33%
Activity (SH-SY5Y [4]): 65.14%

Nc1ccccc1NC(=O)c1ccc(COc2c(N)cc(Cl)cc2Cl)cc1
Activity (SH-SY5Y [1]): 41.87%
Activity (SH-SY5Y [2]): 14.78%
Activity (SH-SY5Y [3]): 0.24%
Activity (SH-SY5Y [4]): 63.3%
